{
  "source": "patent US20020156265A1",
  "about": "“DNA encoding a GABABR2 polypeptide and uses thereof” (priority 1998, published 2002)",
  "key": {"GABA receptors": {"system": "GABA receptors", "conditions": "in vivo; cited from earlier work"}, "GABABR2": {"molecular_target": "T1, GABABR2 (Rattus norvegicus, UniProt O88871)", "T1 sequence (O88871 41-940)": "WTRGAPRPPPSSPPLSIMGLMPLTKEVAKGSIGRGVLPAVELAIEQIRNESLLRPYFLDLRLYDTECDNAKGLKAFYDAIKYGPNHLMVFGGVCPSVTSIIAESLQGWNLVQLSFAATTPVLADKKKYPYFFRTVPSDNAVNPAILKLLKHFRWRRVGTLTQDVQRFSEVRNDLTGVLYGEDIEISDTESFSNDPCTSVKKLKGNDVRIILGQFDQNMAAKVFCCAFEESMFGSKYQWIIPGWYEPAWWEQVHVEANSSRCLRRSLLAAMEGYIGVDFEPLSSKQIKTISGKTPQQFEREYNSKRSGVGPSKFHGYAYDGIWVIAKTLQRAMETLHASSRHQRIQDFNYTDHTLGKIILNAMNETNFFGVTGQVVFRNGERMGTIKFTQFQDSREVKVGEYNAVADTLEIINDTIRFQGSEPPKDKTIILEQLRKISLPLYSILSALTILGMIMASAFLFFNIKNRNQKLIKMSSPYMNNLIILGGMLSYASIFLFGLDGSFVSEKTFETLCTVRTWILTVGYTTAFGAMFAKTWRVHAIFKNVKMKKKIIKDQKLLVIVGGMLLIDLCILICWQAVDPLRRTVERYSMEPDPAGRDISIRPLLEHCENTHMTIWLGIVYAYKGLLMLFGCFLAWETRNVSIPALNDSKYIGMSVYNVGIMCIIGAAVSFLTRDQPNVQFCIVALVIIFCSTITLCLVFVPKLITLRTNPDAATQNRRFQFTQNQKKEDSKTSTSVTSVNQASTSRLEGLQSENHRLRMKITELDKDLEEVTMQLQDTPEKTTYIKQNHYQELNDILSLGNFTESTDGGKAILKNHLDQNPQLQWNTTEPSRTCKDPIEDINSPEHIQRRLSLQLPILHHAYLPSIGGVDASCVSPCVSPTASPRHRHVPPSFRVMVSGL", "test": "Radioligand binding, membranes of HEK293 or COS-7 cells expressing GABABR2", "description": "(§1) Transfected cells from culture flasks were scraped into 5 mL of Tris-HCl, 5 mM EDTA, pH 7.5, and lysed by sonication. The cell lysates were centrifuged at 1000 rpm for 5 min. at 4° C., and the supernatant was centrifuged at 30,000×g for 20 min. at 4° C. The pellet was suspended in binding buffer (50 mM Tris-HCl, 2.5 mM CaCl2 at pH 7.5 supplemented with 0.1% BSA, 2 μg/mL aprotinin, 0.5 mg/mL leupeptin, and 10 μg/mL phosphoramidon). […] In equilibrium saturation binding assays membrane preparations were incubated in the presence of increasing concentrations of labeled compound. […] Binding reaction mixtures were incubated for 1 hr at 30° C., and the reaction was stopped by filtration through GF/B filters treated with 0.5% polyethyleneimine, using a cell harvester. […] Data were analyzed by a computerized non-linear regression program. Non-specific binding was defined as the amount of radioactivity remaining after incubation of membrane protein in the presence of excess unlabeled compound. Protein concentration may be measured by the Bradford method using Bio-Rad Reagent, with bovine serum albumin as a standard."}, "GABABR1": {"molecular_target": "GABABR1 (Rattus norvegicus, UniProt Q9Z0U4)", "sequence (Q9Z0U4 1-844 isoform Q9Z0U4-3)": "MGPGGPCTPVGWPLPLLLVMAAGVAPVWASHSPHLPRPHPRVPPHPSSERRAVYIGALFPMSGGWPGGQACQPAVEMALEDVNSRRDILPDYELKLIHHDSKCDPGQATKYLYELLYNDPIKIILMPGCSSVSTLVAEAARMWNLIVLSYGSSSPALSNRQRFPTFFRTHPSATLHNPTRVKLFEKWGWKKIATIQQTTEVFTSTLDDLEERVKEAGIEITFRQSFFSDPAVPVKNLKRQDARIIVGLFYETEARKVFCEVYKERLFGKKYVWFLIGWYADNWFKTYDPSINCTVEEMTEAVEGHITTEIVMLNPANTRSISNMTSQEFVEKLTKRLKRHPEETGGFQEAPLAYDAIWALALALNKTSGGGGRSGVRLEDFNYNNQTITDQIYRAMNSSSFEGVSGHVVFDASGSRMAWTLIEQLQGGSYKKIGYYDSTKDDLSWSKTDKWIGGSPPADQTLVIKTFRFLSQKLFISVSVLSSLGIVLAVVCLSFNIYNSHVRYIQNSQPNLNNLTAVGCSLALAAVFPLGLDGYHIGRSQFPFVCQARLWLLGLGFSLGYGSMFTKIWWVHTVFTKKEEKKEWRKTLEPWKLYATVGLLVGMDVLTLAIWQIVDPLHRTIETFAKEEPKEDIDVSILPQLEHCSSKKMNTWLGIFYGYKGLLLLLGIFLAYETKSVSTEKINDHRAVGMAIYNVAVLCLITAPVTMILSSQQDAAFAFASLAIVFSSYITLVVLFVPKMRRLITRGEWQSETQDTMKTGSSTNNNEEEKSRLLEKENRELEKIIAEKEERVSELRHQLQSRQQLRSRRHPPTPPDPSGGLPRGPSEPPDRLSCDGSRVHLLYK", "test": "Radioligand binding, [3H]-CGP54626, membranes of COS-7 or HEK293 cells expressing GABABR1", "conditions": "for pKi: Displacement of [3H]-CGP54626 from COS-7 cells expressing GABABR1", "description": "as §1"}, "GABABR1b/GABABR2 [1]": {"molecular_target": "T2, GABABR1b/GABABR2 (Rattus norvegicus, UniProt Q9Z0U4)", "T2 sequence (Q9Z0U4 1-844 isoform Q9Z0U4-3, one chain of several)": "as the sequence (Q9Z0U4 1-844 isoform Q9Z0U4-3) above", "test": "GIRK currents in Xenopus oocytes expressing GABABR1b/GABABR2 + GIRKs (voltage clamp)", "format": "cell-based", "parameters": "ligated to a PCR fragment containing the missing base pairs to obtain the full length clone; linearized DNA plasmids containing the complete coding region of the gene; expressed in transfected cells; host or cells: Xenopus laevis oocytes, mRNA injection", "conditions": "for pKB: GABABR1 + GABABR2, oocytes, antagonist, measured using GABA as agonist, n = 4-6 oocytes; for Shift of the GABA concentration-response curve: CGP55845 at 50 nM, CGP54626 at 5 μM, FIG. 15B", "method": "Human heart cDNA was used as template together with the primers\nDual electrode voltage clamp (“GeneClamp”, Axon Instruments Inc., Foster City, Calif.) is performed using 3 M KCl-filled glass microelectrodes having resistances of 1-3 Mohms. […] Experiments are carried out at room temperature.\nFits were made with a Marquardt-Levenberg non-linear least-squares curve fitting algorithm."}, "GABABR1/R2": {"molecular_target": "GABABR1/R2 (Rattus norvegicus, UniProt Q9Z0U4)", "sequence (Q9Z0U4 1-844 isoform Q9Z0U4-3, one chain of several)": "as the sequence (Q9Z0U4 1-844 isoform Q9Z0U4-3) above", "test": "Radioligand binding, membranes from cells co-transfected with GABABR1/R2", "description": "as §1"}, "[2]": {"conditions": "rhesus monkeys; cited from earlier work"}, "[3]": {"conditions": "aged rats; cited from earlier work"}, "rat GABABR1/rat GABABR2": {"molecular_target": "rat GABABR1/rat GABABR2 (Rattus norvegicus, UniProt Q9Z0U4)", "sequence (Q9Z0U4 1-844 isoform Q9Z0U4-3, one chain of several)": "as the sequence (Q9Z0U4 1-844 isoform Q9Z0U4-3) above", "test": "Microphysiometry (extracellular acidification) in CHO cells co-expressing rat GABABR1/rat GABABR2", "conditions": "100 nM CGP55845, pretreatment with PTX", "description": "GABABR1, GABABR2 or the combination, were transiently expressed in CHO-K1 cells by liposome mediated transfection according to the manufacturer's recommendations (“LipofectAMINE”, GibcoBRL, Bethesda, Md.), and maintained in Ham's F-12 medium with 10% bovine serum. […] The recording paradigm consisted of a 100 ml/min flow rate and a 30 s flow interruption during which the rate measurement was taken. Challenges involved an 80 s drug exposure just prior to the first post-challenge rate measurement being taken, followed by two additional pump cycles. Acidification rates reported are expressed as a percentage increase of the peak response over the baseline rate observed just prior to challenge."}, "rat GABABR2 (rat) [4]": {"molecular_target": "rat GABABR2 (rat) (UniProt O88871)", "test": "cell-based or functional assay"}, "rat GABABR2 (rat) [5]": {"molecular_target": "rat GABABR2 (rat) (UniProt O88871)", "test": "cell-based or functional assay", "remark": "listed apart in the source"}, "GABABR1b/GABABR2 [6]": {"molecular_target": "T2, GABABR1b/GABABR2", "test": "GIRK currents in HEK-293 cells transiently transfected with GABABR1b/GABABR2 + GIRKs (whole-cell patch clamp)", "format": "cell-based", "parameters": "ligated to a PCR fragment containing the missing base pairs to obtain the full length clone; expressed in transfected cells", "conditions": "HEK-293 doubly transfected cells; CGP55845 at 1 μM, Ba++ 100 μM", "description": "The ability of the rat GABABR1 and GABABR2 genes to activate GIRK currents in mammalian cells was investigated by transient transfection of HEK-293 cells followed by voltage clamp analysis of currents. HEK-293 cells were maintained in Dulbecco's modified Eagle medium (DMEM) plus 10% (v/v) bovine calf serum, 2% L-glutamine, 50 U/ml penicillin, and 50 μg/ml streptomycin and were incubated at 37° C. in a humidified 5% CO2 atmosphere. Cells were harvested twice each week by treatment with 0.25% trypsin/1 mM EDTA in Hank's Salts and re-seeded at 20% of their original density either into 75 cm^2 flasks (for passaging) or into 35 mm tissue culture dishes (for transfection and electrophysiology experiments).\nHEK-293 cells, 40%-80% confluent, were co-transfected with various combinations of 0.6 ug each of the following plasmids: pGreen Lantern-1 (Gibco/BRL, Gaithersburg, Md.), human GIRK1 (JS1800), human GIRK4 (JS1741), rat GABABR1b (BO58), and rat GABABR2 (BO55). Cells were transiently transfected using the Superfect Transfection Reagent from Qiagen (Valencia, Calif.) according to the manufacturer's instructions. Briefly, 3 μg total plasmid DNA were incubated with 22.5 μl Superfect Reagent in 100 μl serum-free DMEM for 5-10 minutes at room temperature. After addition of 600 μl complete DMEM, the DNA/Superfect mixture was transferred to cells growing in 35 mm dishes coated with poly-D-lysine and incubated for 2-4 hours at 37° C. in a 5% CO2 incubator. Subsequently, the dishes were washed once with phosphate-buffered saline and 2 ml complete DMEM was added. Cells were incubated for 24-72 hours at 37° C. before performing electrophysiological measurements.\nThe whole-cell configuration of the patch-clamp technique was used with glass pipettes having resistances of 2-4 MΩ when filled with the pipette solution. […] GIRK currents were recorded in elevated K^+ solution containing 25 mM K^+ and a correspondingly lower concentration of Na^+. Voltage clamp recordings were made with an EPC-9 amplifier using Pulse+PulseFit software (HEKA Elektronik). Series resistances were kept below 10 Mohm and no attempt was made to provide series resistance compensation. Currents were low-pass filtered at 1 kHz and digitized at a rate of 5 kHz. Unless otherwise noted, experiments were performed at room temperature on cells voltage clamped at a holding potential of −70 mV. […] The time to complete solution exchange was about 100 ms. The bath was constantly perfused at a low rate with control solution."}, "[7]": {"conditions": "rat, in vivo; cited from earlier work"}},
  "note": "Entries after “also recorded” stand apart in the source; their conditions may differ. Where two headings read alike, the source gives them in different places.",
  "data": [
    {"compound": "NCC(CP(=O)(O)O)c1ccc(Cl)cc1", "note": "(stereo not drawn) [phaclofen]", "values": [
      {"measurement": "Dopamine release in the ventral pallidum", "setting": "GABA receptors", "result": "increased dopamine release"}
    ]},
    {"compound": "C[C@H](NC[C@H](O)CP(=O)(O)CC1CCCCC1)c1ccc(Cl)c(Cl)c1", "note": "[[^3H]-CGP54626]", "values": [
      {"measurement": "Labeling of membranes by radioligand", "setting": "GABABR2", "result": "not those expressing GABABR2"},
      {"measurement": "Labeling of membranes by radioligand", "setting": "GABABR1; HEK293 or COS-7 cells expressing GABABR1", "result": "labeled"}
    ]},
    {"compound": "C[C@H](NC[C@H](O)CP(=O)(O)CC1CCCCC1)c1ccc(Cl)c(Cl)c1", "note": "[CGP54626]", "values": [
      {"measurement": "pKB", "setting": "GABABR1b/GABABR2 [1]", "result": 7.48},
      {"measurement": "Shift of the GABA concentration-response curve", "setting": "GABABR1b/GABABR2 [1]; oocytes", "result": "Right-ward shifts"},
      {"measurement": "Binding profile compared with GABABR1 alone", "setting": "GABABR1/R2", "result": "not different from those transfected with GABABR1 alone"},
      {"measurement": "pKi", "setting": "GABABR1", "result": 8.95}
    ]},
    {"compound": "CCCCP(=O)(O)CCCN", "note": "[CGP36742]", "values": [
      {"measurement": "Performance in conditioned spatial color task", "setting": "[2]", "result": "improve"},
      {"measurement": "Learning performance", "setting": "[3]", "result": "improve learning performance"}
    ]},
    {"compound": "CC1(C)CO[C@@H](CC(=O)O)CN1", "note": "[SCH-50911]", "values": [
      {"measurement": "Binding profile compared with GABABR1 alone", "setting": "GABABR1/R2", "result": "not different from those transfected with GABABR1 alone"}
    ]},
    {"compound": "pertussis toxin", "values": [
      {"measurement": "Effect on GABA-stimulated currents", "setting": "GABABR1b/GABABR2 [1]; oocytes injected with pertussis toxin 2 ng/oocyte 6 h before voltage clamping", "result": "abolished"},
      {"measurement": "Block of baclofen-stimulated acidification response", "setting": "rat GABABR1/rat GABABR2", "result": "blocked"}
    ]},
    {"compound": "rat GABABR1b (from UniProt Q9Z0U4 164-960) (receptor)", "values": [
      {"measurement": "Magnitude of GIRK currents stimulated by GABA, HEK-293, mean (pA)", "setting": "rat GABABR2 (rat) [4]", "result": 470, "unit": "pA"},
      {"measurement": "Magnitude of GIRK currents stimulated by GABA, oocytes, mean (nA)", "setting": "rat GABABR2 (rat) [4]", "result": 832, "unit": "nA"},
      {"measurement": "Magnitude of GIRK currents stimulated by GABA, HEK-293, mean (pA)", "setting": "rat GABABR2 (rat) [5]", "result": 658, "unit": "pA"},
      {"measurement": "Magnitude of GIRK currents stimulated by GABA, oocytes, mean (nA)", "setting": "rat GABABR2 (rat) [5]", "result": 1400, "unit": "nA"},
      {"measurement": "agonist-evoked extracellular acidification rate, microphysiometer, co-transfected CHO cells", "setting": "rat GABABR2 (rat) [5]", "result": 9, "unit": "fold"}
    ]},
    {"compound": "rat GABABR1a (from UniProt Q9Z0U4 20-960) (receptor)", "values": [
      {"measurement": "K+ (GIRK) currents in response to 100 µM GABA, HEK-293 cells", "setting": "rat GABABR2 (rat) [5]", "result": 1050, "unit": "pA"}
    ]},
    {"compound": "C[C@H](NC[C@H](O)CP(=O)(O)Cc1ccccc1)c1ccc(Cl)c(Cl)c1", "note": "[CGP55845]", "values": [
      {"measurement": "pKB", "setting": "GABABR1b/GABABR2 [1]", "result": 8.60},
      {"measurement": "Block of currents stimulated by GABA", "setting": "GABABR1b/GABABR2 [1]; oocytes, CGP55845 1 μM, reversible", "result": "completely blocked"},
      {"measurement": "Shift of the GABA concentration-response curve", "setting": "GABABR1b/GABABR2 [1]; oocytes", "result": "Right-ward shifts"},
      {"measurement": "Block of GABA-elicited currents", "setting": "GABABR1b/GABABR2 [6]", "result": "completely blocked; also recorded: abolished"},
      {"measurement": "Binding profile compared with GABABR1 alone", "setting": "GABABR1/R2", "result": "not different from those transfected with GABABR1 alone"},
      {"measurement": "Block of baclofen-stimulated acidification response", "setting": "rat GABABR1/rat GABABR2", "result": "blocked"},
      {"measurement": "pKi", "setting": "GABABR1", "result": 8.7}
    ]},
    {"compound": "NCC(CC(=O)O)c1ccc(Cl)cc1", "note": "(stereo not drawn) [baclofen]", "values": [
      {"measurement": "Reinforcing effects of cocaine", "setting": "[7]", "result": "attenuate the reinforcing effects of cocaine"}
    ]},
    {"compound": "[Ba+2]", "note": "[Ba^++]", "values": [
      {"measurement": "Block of GABA-elicited currents", "setting": "GABABR1b/GABABR2 [6]", "result": "completely blocked"}
    ]}
  ]
}
